Laboratory results reported in patent US7268113B2, “Long lasting growth hormone releasing factor derivatives” (ConjuChem Biotechnologies Inc., priority 2002, dated 2007).
Like-named read-outs stand apart in the source and are kept apart here. Where a SMILES comes first, the peptide text is derived from it. [ ]: non-standard residue; d: D form. The star is where a group is joined. Propanoyl(3-maleimido) = O=C1C=CC(=O)N1CCC(=O)*

Experiments:
[1] = in vivo; cited from earlier work
[2] = Pharmacokinetic studies in male Sprague-Dawley rats (plasma RIA); type: in vivo, rat
Procedure: Pharmacokinetic studies were carried out on the compounds of Examples 5 and 6. Each compound was injected subcutaneously (1 μmol/kg) or intravenously (100 nmol/kg) to male Sprague-Dawley rats. Serial blood samples were taken at pre-dose, 5, 30 and 60 minutes and 2, 4, 8, 24, 48, 72 and 96 hours post-agent administration. Plasma were harvested and frozen until analysis by radioimmunoassay (RIA). A commercial polyclonal antibody raised against human native GRF (1–29) was used to detect the compounds. The assay sensitivity was 300 to 10 000 pM. Consequently, some samples had to be diluted for analysis. The results of the pharmacokinetic profiles appear in FIG. 9. As it can be seen, the compound of Example 5, i.e., the native peptide, disappears very rapidly. In fact, the compound of Example 5, whether administered subcutaneously or intrasvenously, could not be detected after 60 minutes post administration. This is consistent with results in Sprague-Dawley rats reported in the literature for GRF (1–29) and other analogues thereof, regarding the terminal half-life thereof and the percentage of bioavailability (SC/IV) (see for example Peptides, 9:207–209, and J. Endocr., 107:R5–R8.

Row | λ ([2]; intravenous administration, 100 nmol/kg, male Sprague-Dawley rats) | half-life ([2]; rat, in vivo, sc, 1 umol/kg, subcutaneous administration, 1 μmol/kg, male Sprague-Dawley rats, read-out: Terminal half-life (converted)) [h] | time post administration at which compound remains detectable in plasma ([2]; subcutaneous (1 μmol/kg) or intravenous (100 nmol/kg), plasma RIA, FIG. 9) [h] | λ ([2]; subcutaneous administration, 1 μmol/kg, male Sprague-Dawley rats) | Compound | half-life [1] [h]
1 | – | – | – | – | GRF 1–29: N-terminal 1–29 fragment of growth hormone releasing factor; commercial GRF(1–29) from Polypeptide Laboratories used as comparator | 0.167 to 0.217
2 | 0.037 | 25.8 ± 2.1 | ≥ 96 | 0.027 | CC[C@H](C)[C@H](NC(=O)[C@H](C)NC(=O)[C@H](CC(=O)O)NC(=O)[C@@H](C)NC(=O)[C@@H](N)Cc1ccc(O)cc1)C(=O)N[C@@H](Cc1ccccc1)C(=O)N[C@H](C(=O)N[C@@H](CCC(N)=O)C(=O)N[C@@H](CO)C(=O)N[C@@H](Cc1ccc(O)cc1)C(=O)N[C@@H](CCCNC(=N)N)C(=O)N[C@@H](CCCCN)C(=O)N[C@H](C(=O)N[C@@H](CC(C)C)C(=O)N[C@@H](C)C(=O)N[C@@H](CCC(N)=O)C(=O)N[C@@H](CC(C)C)C(=O)N[C@@H](CO)C(=O)N[C@@H](C)C(=O)N[C@@H](CCCNC(=N)N)C(=O)N[C@@H](CCCCN)C(=O)N[C@@H](CC(C)C)C(=O)N[C@@H](CC(C)C)C(=O)N[C@@H](CCC(N)=O)C(=O)N[C@@H](CC(=O)O)C(=O)N[C@H](C(=O)N[C@@H](CC(C)C)C(=O)N[C@@H](CO)C(=O)N[C@@H](CCCNC(=N)N)C(=O)N[C@@H](CCCCNC(=O)CCN1C(=O)C=CC1=O)C(N)=O)[C@@H](C)CC)C(C)C)[C@@H](C)O [Example 6] (H-Y[dA]DAIFTQSYRKVLAQLSARKLLQDILSRK(Propanoyl(3-maleimido))-NH2) | –
